Source: patent US9617269B2
pIC50: −log10 of the molar value.

Target: phosphodiesterase IX (Homo sapiens (Human), UniProt O76083)
Assay: Inhibition activity to the phosphodiesterase IX
Format: biochemical
Details: concentration of the inhibitor when the inhibition rate reaches 50%
Procedure: Inhibition activities of all the N-substituted pyrazolo [3,4-d] pyrimidine ketone compounds according to the present invention to the phosphodiesterase IX are tested.

Chain of phosphodiesterase IX (O76083 whole entry): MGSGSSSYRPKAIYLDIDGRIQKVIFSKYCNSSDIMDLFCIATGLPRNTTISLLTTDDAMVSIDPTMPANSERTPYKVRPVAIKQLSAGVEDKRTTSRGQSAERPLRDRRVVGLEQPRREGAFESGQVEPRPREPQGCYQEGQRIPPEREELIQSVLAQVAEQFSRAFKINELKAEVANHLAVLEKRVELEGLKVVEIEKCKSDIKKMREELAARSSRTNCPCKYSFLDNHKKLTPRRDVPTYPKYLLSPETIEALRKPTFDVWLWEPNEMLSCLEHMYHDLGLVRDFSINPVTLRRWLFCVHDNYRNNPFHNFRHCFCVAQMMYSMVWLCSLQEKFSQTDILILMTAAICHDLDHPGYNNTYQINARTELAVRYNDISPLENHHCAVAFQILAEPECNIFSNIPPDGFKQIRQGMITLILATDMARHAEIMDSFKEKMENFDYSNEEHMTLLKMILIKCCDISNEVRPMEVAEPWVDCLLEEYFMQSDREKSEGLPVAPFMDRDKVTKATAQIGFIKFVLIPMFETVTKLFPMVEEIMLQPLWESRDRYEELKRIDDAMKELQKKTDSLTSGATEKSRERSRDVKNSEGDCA

SMILES: COc1ccc(NC(=O)C(C)Nc2nc3c(cnn3-c3ccccc3Cl)c(=O)[nH]2)cc1 (stereo not shown) [WYQ-94-D]
- pIC50: 8.22
